Laboratory results: patent US20250312499A1, “KISSPEPTIN RECEPTOR (KISS1R) TARGETED THERAPEUTICS AND USES THEREOF” (priority 2024, published 2025)
Numbered stars: 1 amine (or outer) side, 2 acyl side, 3 side chain; on linkers, the order of the positions; unused ones are H or OH. Square brackets hold non-standard residues; d marks the D form. Peptide text beside a SMILES is read from it. * marks the point of attachment. DOTA = O=C(O)CN1CCN(CC(=O)O)CCN(CC(=O)*)CCN(CC(=O)O)CC1; Ala(9-anthryl) = N[C@@H](Cc1c2ccccc2cc2ccccc12)C(=O)O; Gly(N-(3-F-4-Me-benzyl)) = Cc1ccc(CNCC(=O)*)cc1F; Gly(N-3-F-4-Me-benzyl) = Cc1ccc(CNCC(=O)O)cc1F; Gly(Nα-4-MeO-benzyl) = COc1ccc(CNCC(=O)*)cc1; Api(1-amidino) = N=C(N)N1CCC(N)(C(=O)O)CC1; d(γGlu) = O=C(O)[C@@H](CCC(=O)[*:2])N[*:1]; Bip = N[C@@H](Cc1ccc(-c2ccccc2)cc1)C(=O)O; Hydrocinnamoyl(4-I) = O=C(CCc1ccc(I)cc1)*; Phe(4-CN) = N#Cc1ccc(C[C@H](N)C(=O)O)cc1; HO(CH2CH2O)2CH2CH2CO = O=C(CCOCCOCCO)*; Phe(3-F) = N[C@@H](Cc1cccc(F)c1)C(=O)O; 2Nal = N[C@@H](Cc1ccc2ccccc2c1)C(=O)O; d2Nal = N[C@H](Cc1ccc2ccccc2c1)C(=O)O; Trx = NC[C@H]1CC[C@H](C(=O)O)CC1; X1 = O=C(CN1CCC(N[*:1])CC1)[*:2]; dCya = N[C@H](CS(=O)(=O)O)C(=O)O; 4Pal = N[C@@H](Cc1ccncc1)C(=O)O; 4Amb = NCc1ccc(C(=O)O)cc1; Api = NC1(C(=O)O)CCNCC1; PEG2 = NCCOCCOCCC(=O)O; Ahx = NCCCCCC(=O)O; azaGly = NNC(=O)O; Sar = CNCC(=O)O

Molecular target: human kisspeptin receptor (Homo sapiens (Human), UniProt Q969F8)
Assay: Human KISS1R binding assay (membrane competition binding)
Settings: 90 min at room temperature; competition with 0.2 nM [125I]-metastin (45-54); Flp-In T-Rex 293 kisspeptin membranes; metal complexes nonradioactive Ga, In, Lu; read-out: hKiSSR Binding Ki (90 min)
Outline: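 Membranes from tetracycline-induced (48 h) Flp-In T-Rex 293 cells expressing receptor, 5–10 μg, incubated 90 min at room temperature with 0.2 nM [125I]-metastin (45-54) and competitor (typically 0–10,000 nM) in Tris/Mg/Ca/EGTA/0.1% BSA, pH 7.4. Filtration, washing, counting; Ki by non-linear regression.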

Chain of human kisspeptin receptor (Q969F8 whole entry): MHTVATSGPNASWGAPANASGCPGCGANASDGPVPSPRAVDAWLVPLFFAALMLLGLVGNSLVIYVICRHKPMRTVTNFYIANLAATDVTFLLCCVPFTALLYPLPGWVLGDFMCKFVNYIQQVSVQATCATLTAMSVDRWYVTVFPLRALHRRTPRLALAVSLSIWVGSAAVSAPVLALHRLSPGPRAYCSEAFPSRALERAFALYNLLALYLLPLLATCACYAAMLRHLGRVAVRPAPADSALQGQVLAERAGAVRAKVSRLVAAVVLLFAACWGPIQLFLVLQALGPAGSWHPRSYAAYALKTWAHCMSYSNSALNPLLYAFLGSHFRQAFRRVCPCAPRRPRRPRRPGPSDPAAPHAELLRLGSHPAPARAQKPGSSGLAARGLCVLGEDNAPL

Ki [nM]	Compound
< 10	CC(C)C[C@H](NC(=O)NNC(=O)[C@H](Cc1ccccc1)NC(=O)CCCCCNC(=O)[C@H](Cc1ccc2ccccc2c1)NC(=O)[C@@H](Cc1ccc(O)cc1)NC(=O)CN1CCN(CC(=O)O)CCN(CC(=O)O)CCN(CC(=O)O)CC1)C(=O)NC1(C(=O)N[C@@H](Cc2ccccc2)C(N)=O)CCN(C(=N)N)CC1 [Compound 289] ({DOTA}-[dY][2Nal][Ahx]F[azaGly]L[Api(1-amidino)]F-NH2)
< 10	Cc1ccc(CNCC(=O)N2CCC(NC(=O)[C@H](CC(C)C)NC(=O)NNC(=O)[C@H](Cc3ccccc3)NC(=O)[C@@H](NC(=O)[C@H](CC(N)=O)NC(=O)[C@@H](Cc3c[nH]c4ccccc34)NC(=O)[C@@H](Cc3ccc(O)cc3)NC(=O)CCCCCNC(=O)[C@@H](CS(=O)(=O)O)NC(=O)[C@@H](CS(=O)(=O)O)NC(=O)[C@@H](CS(=O)(=O)O)NC(=O)CN3CCN(CC(=O)O)CCN(CC(=O)O)CCN(CC(=O)O)CC3)[C@@H](C)O)(C(=O)N[C@@H](Cc3c[nH]c4ccccc34)C(N)=O)CC2)cc1F [Compound 114] ({DOTA}-[dCya][dCya][dCya][Ahx][dY][dW]NTF[azaGly]L[Api](Gly(N-(3-F-4-Me-benzyl)))W-NH2)
< 10	Cc1ccc(CNCC(=O)N2CCC(NC(=O)[C@H](CC(C)C)NC(=O)NNC(=O)[C@H](Cc3ccccc3)NC(=O)[C@H]3CC[C@H](CNC(=O)CC[C@@H](NC(=O)CN4CCN(CC(=O)O)CCN(CC(=O)O)CCN(CC(=O)O)CC4)C(=O)O)CC3)(C(=O)N[C@@H](Cc3c[nH]c4ccccc34)C(N)=O)CC2)cc1F [Compound 165] ({DOTA-d(γGlu)-Trx}-F[azaGly]L[Api](Gly(N-(3-F-4-Me-benzyl)))W-NH2)
< 10	CC(C)C[C@H](NC(=O)NNC(=O)[C@H](Cc1ccccc1)NC(=O)[C@@H](NC(=O)[C@H](CC(N)=O)NC(=O)[C@H](CCCCNC(=O)CN1CCN(CC(=O)O)CCN(CC(=O)O)CCN(CC(=O)O)CC1)NC(=O)[C@@H](Cc1ccc(O)cc1)NC(=O)CCOCCOCCNC(=O)CCc1ccc(I)cc1)[C@@H](C)O)C(=O)NC1(C(=O)N[C@@H](Cc2ccc(C#N)cc2)C(N)=O)CCN(C(=N)N)CC1 [Compound 325] ({Hydrocinnamoyl(4-I)-PEG2}-[dY]K(DOTA)NTF[azaGly]L[Api(1-amidino)][Phe(4-CN)]-NH2)
< 10	Cc1ccc(CNCC(=O)N2CCC(NC(=O)[C@H](CC(C)C)NC(=O)NNC(=O)[C@H](Cc3ccccc3)NC(=O)[C@@H](NC(=O)[C@H](CC(N)=O)NC(=O)c3ccc(CNC(=O)CN4CCN(CC(=O)O)CCN(CC(=O)O)CCN(CC(=O)O)CC4)cc3)[C@@H](C)O)(C(=O)N[C@@H](Cc3ccc(O)cc3)C(N)=O)CC2)cc1F [Compound 205] ({DOTA-4Amb}-NTF[azaGly]L[Api](Gly(N-(3-F-4-Me-benzyl)))Y-NH2)
< 10	CC(C)C[C@H](NC(=O)NNC(=O)[C@H](Cc1ccccc1)NC(=O)[C@@H](NC(=O)[C@H](CC(N)=O)NC(=O)[C@H](Cc1c2ccccc2cc2ccccc12)NC(=O)[C@@H](Cc1ccc(O)cc1)NC(=O)CCCCCNC(=O)CN1CCN(CC(=O)O)CCN(CC(=O)O)CCN(CC(=O)O)CC1)[C@@H](C)O)C(=O)NC1(C(=O)N[C@@H](Cc2c[nH]c3ccccc23)C(N)=O)CCN(C(=N)N)CC1 [Compound 184] ({DOTA-Ahx}-[dY][Ala(9-anthryl)]NTF[azaGly]L[Api(1-amidino)]W-NH2)
< 10	CNCC(=O)N1CCC(NC(=O)[C@H](CC(C)C)NC(=O)NNC(=O)[C@H](Cc2ccccc2)NC(=O)[C@@H](NC(=O)[C@H](CC(N)=O)NC(=O)[C@H](CCCCNC(=O)CN2CCN(CC(=O)O)CCN(CC(=O)O)CCN(CC(=O)O)CC2)NC(=O)[C@@H](Cc2ccc(O)cc2)NC(=O)CNCc2ccc(C)c(F)c2)[C@@H](C)O)(C(=O)N[C@@H](Cc2c[nH]c3ccccc23)C(N)=O)CC1 [Compound 386] (H-[Gly(N-3-F-4-Me-benzyl)][dY]K(DOTA)NTF[azaGly]L[Api](Sar)W-NH2)
< 10	Cc1ccc(CNCC(=O)N2CCC(NC(=O)[C@H](CC(C)C)NC(=O)NNC(=O)[C@H](Cc3ccccc3)NC(=O)[C@@H](NC(=O)[C@H](CC(N)=O)NC(=O)[C@@H](Cc3c[nH]c4ccccc34)NC(=O)[C@@H](Cc3ccc(O)cc3)NC(=O)CCCCCNC(=O)[C@H](Cc3ccc(O)cc3)NC(=O)CNC(=O)c3ccc(CNC(=O)CN4CCN(CC(=O)O)CCN(CC(=O)O)CCN(CC(=O)O)CC4)cc3)[C@@H](C)O)(C(=O)N[C@@H](Cc3c[nH]c4ccccc34)C(N)=O)CC2)cc1F [Compound 149] ({DOTA-4Amb}-GY[Ahx][dY][dW]NTF[azaGly]L[Api](Gly(N-(3-F-4-Me-benzyl)))W-NH2)
< 10	Cc1ccc(CNCC(=O)N2CCC(NC(=O)[C@H](CC(C)C)NC(=O)NNC(=O)[C@H](Cc3ccccc3)NC(=O)[C@@H](NC(=O)[C@H](CC(N)=O)NC(=O)[C@@H](Cc3ccc4ccccc4c3)NC(=O)[C@@H](Cc3ccc(O)cc3)NC(=O)CCCCCNC(=O)CN3CCN(CC(=O)O)CCN(CC(=O)O)CCN(CC(=O)O)CC3)[C@@H](C)O)(C(=O)N[C@@H](Cc3c[nH]c4ccccc34)C(N)=O)CC2)cc1F [Compound 304] ({DOTA-Ahx}-[dY][d2Nal]NTF[azaGly]L[Api](Gly(N-(3-F-4-Me-benzyl)))W-NH2)
< 10	CC(C)C[C@H](NC(=O)NNC(=O)[C@H](Cc1ccccc1)NC(=O)[C@@H](NC(=O)[C@H](CC(N)=O)NC(=O)[C@@H](Cc1ccc2ccccc2c1)NC(=O)[C@@H](Cc1ccc(O)cc1)NC(=O)CCOCCOCCNC(=O)CCc1ccc(I)cc1)[C@@H](C)O)C(=O)NC1(C(=O)N[C@@H](Cc2c[nH]c3ccccc23)C(N)=O)CCN(C(=N)N)CC1 [Compound 394] ({Hydrocinnamoyl(4-I)-PEG2}-[dY][d2Nal]NTF[azaGly]L[Api(1-amidino)]W-NH2)
< 10	CC(C)C[C@H](NC(=O)NNC(=O)[C@H](Cc1ccccc1)NC(=O)[C@@H](NC(=O)[C@H](CC(N)=O)NC(=O)[C@H](CCCCNC(=O)CN1CCN(CC(=O)O)CCN(CC(=O)O)CCN(CC(=O)O)CC1)NC(=O)[C@@H](Cc1ccc(O)cc1)NC(=O)CCOCCOCCNC(=O)CCc1ccc(I)cc1)[C@@H](C)O)C(=O)NC1(C(=O)N[C@@H](Cc2c[nH]c3ccccc23)C(N)=O)CCN(C(=N)N)CC1 [Compound 196] ({Hydrocinnamoyl(4-I)-PEG2}-[dY]K(DOTA)NTF[azaGly]L[Api(1-amidino)]W-NH2)
< 10	Cc1ccc(CNCC(=O)N2CCC(NC(=O)[C@H](CC(C)C)NC(=O)NNC(=O)[C@H](Cc3ccccc3)NC(=O)CCCCCNC(=O)[C@H](Cc3ccc(O)cc3)NC(=O)CNC(=O)c3ccc(CNC(=O)CN4CCN(CC(=O)O)CCN(CC(=O)O)CCN(CC(=O)O)CC4)cc3)(C(=O)N[C@@H](Cc3c[nH]c4ccccc34)C(N)=O)CC2)cc1F [Compound 176] ({DOTA-4Amb}-GY[Ahx]F[azaGly]L[Api](Gly(N-(3-F-4-Me-benzyl)))W-NH2)
> 100	Cc1ccc(CNCC(=O)N2CCC(NC(=O)[C@H](CC(C)C)NC(=O)NNC(=O)[C@H](Cc3ccccc3)NC(=O)[C@@H](NC(=O)[C@H](CCCCNC(=O)CN3CCN(CC(=O)O)CCN(CC(=O)O)CCN(CC(=O)O)CC3)NC(=O)CCOCCOCCO)[C@@H](C)O)(C(=O)N[C@@H](Cc3ccncc3)C(N)=O)CC2)cc1F [Compound 251] ({HO(CH2CH2O)2CH2CH2CO}-K(DOTA)TF[azaGly]L[Api](Gly(N-(3-F-4-Me-benzyl)))[4Pal]-NH2)
< 10	Cc1ccc(CNCC(=O)N2CCC(NC(=O)[C@H](CC(C)C)NC(=O)NNC(=O)[C@H](Cc3ccc(-c4ccccc4)cc3)NC(=O)CN3CCC(NC(=O)CN4CCN(CC(=O)O)CCN(CC(=O)O)CCN(CC(=O)O)CC4)CC3)(C(=O)N[C@@H](Cc3c[nH]c4ccccc34)C(N)=O)CC2)cc1F [Compound 142] ({DOTA}-[X1][Bip][azaGly]L[Api](Gly(N-(3-F-4-Me-benzyl)))W-NH2)
< 10	COc1ccc(CNCC(=O)N2CCC(NC(=O)[C@H](CC(C)C)NC(=O)NNC(=O)[C@H](Cc3ccccc3)NC(=O)[C@@H](NC(=O)[C@H](CC(N)=O)NC(=O)CCCCCNC(=O)CN3CCN(CC(=O)O)CCN(CC(=O)O)CCN(CC(=O)O)CC3)[C@@H](C)O)(C(=O)N[C@@H](Cc3ccccc3)C(N)=O)CC2)cc1 [Compound 235] ({DOTA-Ahx}-NTF[azaGly]L[Api](Gly(Nα-4-MeO-benzyl))F-NH2)
< 10	Cc1ccc(CNCC(=O)N2CCC(NC(=O)[C@H](CC(C)C)NC(=O)NNC(=O)[C@H](Cc3ccccc3)NC(=O)CN3CCC(NC(=O)CN4CCN(CC(=O)O)CCN(CC(=O)O)CCN(CC(=O)O)CC4)CC3)(C(=O)N[C@@H](Cc3ccc(O)cc3)C(N)=O)CC2)cc1F [Compound 247] ({DOTA}-[X1]F[azaGly]L[Api](Gly(N-(3-F-4-Me-benzyl)))Y-NH2)
< 10	Cc1ccc(CNCC(=O)N2CCC(NC(=O)[C@H](CC(C)C)NC(=O)NNC(=O)[C@H](Cc3cccc(F)c3)NC(=O)[C@@H](NC(=O)[C@H](CC(N)=O)NC(=O)[C@H](CCC(=O)O)NC(=O)CN3CCC(NC(=O)CN4CCN(CC(=O)O)CCN(CC(=O)O)CCN(CC(=O)O)CC4)CC3)[C@@H](C)O)(C(=O)N[C@@H](Cc3c[nH]c4ccccc34)C(N)=O)CC2)cc1F [Compound 159] ({DOTA}-[X1]ENT[Phe(3-F)][azaGly]L[Api](Gly(N-(3-F-4-Me-benzyl)))W-NH2)

Compound	Ki [nM]
CSCC[C@H](NC(=O)c1ccc(CNC(=O)CN2CCN(CC(=O)O)CCN(CC(=O)O)CCN(CC(=O)O)CC2)cc1)C(=O)N[C@H](C(=O)NCc1ccc(C(=O)N[C@@H](CCSC)C(=O)N[C@H](C(=O)N[C@@H](CCCCNC(=O)CCCCC(=O)N[C@@H](CC(N)=O)C(=O)N[C@H](C(=O)N[C@@H](Cc2ccccc2)C(=O)NNC(=O)N[C@@H](CC(C)C)C(=O)NC2(C(=O)N[C@@H](Cc3c[nH]c4ccccc34)C(N)=O)CCN(C(=O)CNCc3ccc(C)c(F)c3)CC2)[C@@H](C)O)C(=O)O)C(C)C)cc1)C(C)C [Compound 167]	< 10
Cc1ccc(CNCC(=O)N2CCC(NC(=O)[C@H](CC(C)C)n3cc([C@H](Cc4ccccc4)NC(=O)[C@H](N)CCCCNC(=O)CN4CCN(CC(=O)O)CCN(CC(=O)O)CCN(CC(=O)O)CC4)nn3)(C(=O)N[C@@H](Cc3c[nH]c4ccccc34)C(N)=O)CC2)cc1F [Compound 39]	> 100
